Results reported in article PMC12590467, “Accessory Subunit Regulates Thiyl Radical Formation in Benzylsuccinate Synthase” (Biochemistry, 2025).

Target: T1, BSSαβγ (benzylsuccinate synthase) (Thauera aromatica, UniProt O68395)
T1 construct: gene tutD; BSSαγ mixed 1:2 with BSSβ; (αβγ)2; α 865, β 81, γ 60 residues; resolved α 9-865, β 13-81, γ 5-59; catalytic Cys493; with Benzylsuccinate synthase beta subunit; Benzylsuccinate synthase gamma subunit
Assay: X-ray crystal structure, […] Å
Assay type: binding
Details: active site; toluene not added, modelled from glovebox atmosphere; also turned over with fumarate; pH 8.5

T1 sequence (O68395 1-864): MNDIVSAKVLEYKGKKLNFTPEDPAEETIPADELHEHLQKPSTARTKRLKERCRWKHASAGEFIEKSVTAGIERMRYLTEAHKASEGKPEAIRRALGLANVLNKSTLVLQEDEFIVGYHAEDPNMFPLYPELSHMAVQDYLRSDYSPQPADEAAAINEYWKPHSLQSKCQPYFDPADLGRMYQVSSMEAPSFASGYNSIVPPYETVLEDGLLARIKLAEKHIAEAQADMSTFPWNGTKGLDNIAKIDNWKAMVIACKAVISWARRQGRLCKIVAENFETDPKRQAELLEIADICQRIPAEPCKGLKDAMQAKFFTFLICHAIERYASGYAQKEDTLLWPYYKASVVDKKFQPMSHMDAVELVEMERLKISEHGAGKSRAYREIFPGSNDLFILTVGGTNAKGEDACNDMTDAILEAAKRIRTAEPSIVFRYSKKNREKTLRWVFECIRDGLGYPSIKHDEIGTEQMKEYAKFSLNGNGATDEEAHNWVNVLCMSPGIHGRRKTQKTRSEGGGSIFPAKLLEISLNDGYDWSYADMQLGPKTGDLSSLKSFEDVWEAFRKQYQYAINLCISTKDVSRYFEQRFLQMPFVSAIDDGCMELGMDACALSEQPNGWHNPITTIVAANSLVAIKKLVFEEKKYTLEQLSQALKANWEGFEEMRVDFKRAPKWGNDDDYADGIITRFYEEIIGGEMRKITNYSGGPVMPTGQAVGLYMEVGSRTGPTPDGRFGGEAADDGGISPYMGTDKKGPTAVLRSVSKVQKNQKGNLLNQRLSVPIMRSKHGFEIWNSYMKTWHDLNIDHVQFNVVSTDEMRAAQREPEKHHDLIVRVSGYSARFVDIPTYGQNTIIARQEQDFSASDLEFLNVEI
T1 sequence (O68396 1-81 partner): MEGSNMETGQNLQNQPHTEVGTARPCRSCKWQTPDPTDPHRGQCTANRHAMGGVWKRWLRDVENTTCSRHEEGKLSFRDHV
T1 sequence (O68394 1-60 partner): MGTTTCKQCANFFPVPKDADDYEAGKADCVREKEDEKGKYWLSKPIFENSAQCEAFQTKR

For `Cc1ccccc1` [toluene], the “X-ray crystal structure, 2.9 Å” value was “In the active site, both toluene and fumarate were modeled and align well”.
